According to US20230047788A1, “COMPOSITIONS COMPRISING 5-CHOLESTEN-3, 25-DIOL, 3-SULFATE (25HC3S) OR PHARMACEUTICALLY ACCEPTABLE SALT THEREOF AND AT LEAST ONE CYCLIC OLIGOSACCHARIDE” (Virginia Commonwealth University, priority 2016, published 2023):
Read-outs that look alike come from different tables or passages of the source.

Assays:
[1] = Compatibility of 25HC3S for Injection with container closure system; assay type: physicochemical; settings: 10 mL glass vial, FluroTec coated stopper; up to 12 months 2-8°C, 6 months 25°C/60% RH and 40°C/75% RH, inverted
Experimental: 25HC3S for Injection is a sterile powder, for injection solution. The 25HC3S stability with the 10 mL glass vial and FluroTec® coated stopper was studied up to 12 months at 2-8° C., 6 months at 25° C./60% RH, and 6 months at 40° C./75% RH with vials stored in the inverted orientation.

[2] = dog, in vivo
Experimental: Injection routes of administration used were intramuscular, intravenous or subcutaneous. The following example is a representative injection study.
Beagle dogs (n=5/dose group) received a single intravenous bolus injection or a single subcutaneous injection. The parenteral solution that was tested included 25 mg/mL of 25HC3S sodium salt in vehicle (200 mg/mL hydroxypropyl betadex with 10 mM sodium phosphate buffers, in water). The intravenous dose level of 2.5 mg/kg was administered in a dose volume of 0.1 mL/kg whereas the subcutaneous injection dose level of 20 mg/kg was administered in a dose volume of 0.8 mL/kg. Whole blood samples were collected at pre-dose, 0.5, 1, 2, 4, 8, 12, 24, 32 and 48 hours (h) post dose and the resulting plasma samples underwent analyses to quantify 25HC3S levels. During the in-life period, animals were observed daily for mortality and moribundity with clinical examinations conducted daily.

[3] = Solubility of 25HC3S in 10 mM sodium phosphate buffer pH 7.6 with HPbCD at 5, 15 and 25°C; assay type: physicochemical
Experimental: A total of five suspensions of 25HC3S were prepared in 10 mM sodium phosphate buffer at pH 7.6 containing 0, 50, 100, 250 and 400 mg/mL HPbCD. The suspensions were initially sonicated and then stirred. Each suspension (40 mL for the suspension without HPbCD and 20 mL for the remaining suspensions) was then equally divided into 3 vials and stored in 5° C., 15° C. and 25° C./60% relative humidity (RH) stability chambers.
Each suspension was stirred constantly in the stability chambers by a small spin bar and electronic stirrer. At day 1 and day 3, half of each suspension (approximately 6 mL for the sample without HPbCD and 3 mL for the rest of the suspensions with HPbCD) was withdrawn from the vial with a 3 or 5 mL disposable syringe. A syringe filter was then attached to the syringe for filtration of the suspensions. To minimize sample temperature changes during filtration, the syringe and filter were equilibrated at the respective stability chamber temperatures before their use. Approximately 3 mL of the filtrate for the sample without HPbCD and 1 mL of the filtrate for the remaining suspensions in HPbCD were discarded to ensure that the filter membrane was sufficiently saturated with 25HC3S to prevent absorption of the drug from the remaining filtrate. Then approximately 0.5 mL to 1.5 mL of filtrate was collected for HPLC analysis. At day 3, the remaining filtered portions were measured for pH. Reverse phase HPLC was used for measuring the concentration of 25HC3S in the solubility samples.

mice overdosed with APAP = assay: Mortality in mice overdosed with APAP (600 mg/kg); assay type: in vivo, C57BL/6J mice; settings: APAP 600 mg/kg ip; 25 mg/kg 25HC3S iv 0.5 hours after APAP; 5 days after overdose
Experimental: The ability of 25HC3S to treat symptoms of APAP overdose was examined. 12-week-old male C57BL/6J mice were fasted overnight and injected (intraperitoneally) with APAP: 600 mg/kg (high dose) for mortality studies or 350 mg/kg (low dose) for liver function and gene studies. Control mice received only vehicle (20% (v/v) a propylene glycol, 4% (w/v) cyclodextrin (powdered hydroxypropyl beta cyclodextrin in sterile 10% (w/v) glucose.
A composition comprising 25 mg/kg of 25HC3S sodium salt in vehicle was administered intravenously to the experimental mice 0.5 hours after APAP administration. Mortality was monitored in the high dose mice. In the low dose mice, the liver function markers aspartate aminotransferase (AST), alanine aminotransferase (ALT), alkaline phosphatase (ALK) and lactate dehydrogenase (LDH), were measured in serum. Impacts on gene expression were determined by Quantitative Real-time PCR. Membrane potentials were measured using JC1 staining and flow cytometry.

Structure (SMILES): C[C@H](CCCC(C)(C)O)[C@H]1CC[C@H]2[C@@H]3CC=C4C[C@@H](OS(=O)(=O)[O-])CC[C@]4(C)[C@H]3CC[C@]12C.[Na+] [25HC3S, 5-cholesten-3, 25-diol, 3-sulfate]
- compatibility with container closure system [1]: good compatibility
- AUCall, Mean (SD) ([2]; iv): 489 (464) ng * hr/mL
- Cmax ([2]; iv): 0.439 µg/mL
- Tmax, Mean (SD) ([2]; iv): 0.5 (0) hr
- Cmax ([2]; iv, 2.5 mg/kg): 0.439 µg/mL
- mean AUClast ([2]; iv, 2.5 mg/kg): 0.478 µg·h/mL
- plasma levels at 8h ([2]; iv, 2.5 mg/kg): no observable levels in most animals (n=4)
- time point of maximal concentration ([2]; iv, 2.5 mg/kg): 0.5 h
- AUCall, Mean (SD) ([2]; sc): 19676 (3716) ng * hr/mL
- Cmax ([2]; sc): 3.94 µg/mL
- Tmax, Mean (SD) ([2]; sc): 1.8 (1.3) hr
- observed bioavailability ([2]; sc): 0.7
- AUClast ([2]; sc, 20 mg/kg): 19.503 µg·h/mL
- Cmax ([2]; sc, 20 mg/kg): 3.936 µg/mL
- pH of Filtrate Day 3 ([3]; 5°C, HPbCD 0 mg/mL): 7.62
- pH of Filtrate Day 3 ([3]; 5°C, HPbCD 50 mg/mL): 7.70
- Solubility at Day 3 ([3]; 5°C, HPbCD 50 mg/mL, phosphate buffer pH 7.6): 9.32 mg/mL
- pH of Filtrate Day 3 ([3]; 5°C, HPbCD 100 mg/mL): 7.80
- Solubility at Day 3 ([3]; 5°C, HPbCD 100 mg/mL, phosphate buffer pH 7.6): 18.31 mg/mL
- pH of Filtrate Day 3 ([3]; 5°C, HPbCD 250 mg/mL): 8.06
- Solubility at Day 3 ([3]; 5°C, HPbCD 250 mg/mL, phosphate buffer pH 7.6): 42.80 mg/mL
- pH of Filtrate Day 3 ([3]; 5°C, HPbCD 400 mg/mL): 8.42
- Solubility at Day 3 ([3]; 5°C, HPbCD 400 mg/mL, phosphate buffer pH 7.6): 66.89 mg/mL
- pH of Filtrate Day 3 ([3]; 15°C, HPbCD 0 mg/mL): 7.59
- pH of Filtrate Day 3 ([3]; 15°C, HPbCD 50 mg/mL): 7.77
- Solubility at Day 3 ([3]; 15°C, HPbCD 50 mg/mL, phosphate buffer pH 7.6): 9.50 mg/mL
- pH of Filtrate Day 3 ([3]; 15°C, HPbCD 100 mg/mL): 7.98
- Solubility at Day 3 ([3]; 15°C, HPbCD 100 mg/mL, phosphate buffer pH 7.6): 18.51 mg/mL
- pH of Filtrate Day 3 ([3]; 15°C, HPbCD 250 mg/mL): 8.07
- Solubility at Day 3 ([3]; 15°C, HPbCD 250 mg/mL, phosphate buffer pH 7.6): 43.79 mg/mL
- pH of Filtrate Day 3 ([3]; 15°C, HPbCD 400 mg/mL): 8.26
- Solubility at Day 3 ([3]; 15°C, HPbCD 400 mg/mL, phosphate buffer pH 7.6): 68.10 mg/mL
- Solubility at Day 3 ([3]; 25°C/60% RH, HPbCD 0 mg/mL, phosphate buffer pH 7.6, centrifuged sample): 0.006^1 mg/mL
- pH of Filtrate Day 3 ([3]; 25°C/60% RH, HPbCD 50 mg/mL): 7.65
- Solubility at Day 3 ([3]; 25°C/60% RH, HPbCD 50 mg/mL, phosphate buffer pH 7.6): 9.90 mg/mL
- Solubility at Day 3 ([3]; 25°C/60% RH, HPbCD 100 mg/mL, phosphate buffer pH 7.6): 18.33 mg/mL
- pH of Filtrate Day 3 ([3]; 25°C/60% RH, HPbCD 100 mg/mL, supernatant): 7.672
- Solubility at Day 3 ([3]; 25°C/60% RH, HPbCD 250 mg/mL, phosphate buffer pH 7.6): 42.37 mg/mL
- Solubility at Day 3 ([3]; 25°C/60% RH, HPbCD 400 mg/mL, phosphate buffer pH 7.6): 70.80 mg/mL
- pH of Filtrate Day 3 ([3]; 25°C/60% RH, HPbCD 400 mg/mL, supernatant): 8.342
- temperature dependence of solubility in the presence of HPbCD ([3]; between 5°C and 25°C): not temperature dependent
- mice that had died (mice overdosed with APAP): one
